Measurements reported in publication PMC9586926, “An efflux-susceptible antibiotic-adjuvant with systemic efficacy against mouse infections” (Scientific Reports, 2022).
Converted amounts (≈) assume the structure as drawn. Where a SMILES comes first, the peptide text is derived from it. [ ]: non-standard residue; d: D form. The star is where a group is joined. 12Ado = NCCCCCCCCCCCC(=O)O; Decanoyl = CCCCCCCCCC(=O)*; Dap = NC[C@H](N)C(=O)O

Columns and labels:
[1] = test system: S. Typhimurium 14028 (wild-type); settings: cited from earlier work
Excerpt: Table 2 Effect of RND pumps on growth-inhibitory activity. | column: MIC^a (µM) in LB / S. Typhimurium / Wild-Type

[2] = test system: E. coli Ag100 (wild-type); settings: cited from earlier work
Excerpt: Table 2 Effect of RND pumps on growth-inhibitory activity. | column: MIC^a (µM) in LB / E. coli / Wild-Type

E. coli 25922 [3] = settings: same assessment tools; cited from earlier work
Excerpt: To our knowledge, the finding of an adjuvant whose activity is enhanced—rather than repressed—after efflux, is hitherto unreported. One might ask, at this point: If the K-, O and B-based analogs are efflux substrates (as implied by MIC data, Table 2), how come only C10BBc12B is positively affected by efflux?

murine RBC = assay: Hemolysis; assay type: cell-based; settings: 1% hematocrit murine RBC, 3 h, 37 °C
Method: Permeabilization of red blood cells (RBC) was evaluated using absorbance measurements of extracellular hemoglobin. Serial twofold dilutions of lipopeptides were incubated with 1% hematocrit of murine RBC for 3 h at 37 °C with shaking. Samples were then centrifuged at 20,000 RCF for 5 min, and absorbance of the supernatants was measured at 450 nm (BioTek Instruments Synergy HT; Winooski, VT, USA). Percent hemolysis was then calculated by (AS − AN)/(AP − AN) × 100; where AS, AN, and AP represent the absorbance of the sample, negative control (PBS) and positive control (Milli-Q water), respectively. LC50 values were extracted from trend-lines generated for linear-regions of plots correlating lipopeptide concentrations and percent hemolysis.

P. aeruginosa = assay: MIC, broth microdilution; assay type: cell-based, Pseudomonas aeruginosa; settings: broth microdilution in LB, 18–24 h, 37 °C; n = 3 strains
Excerpt: (§1) Bacteria used in this study consisted of standard American Type Culture Collection (ATCC; Biological Industries, Beit Haemek, Israel) strains, clinically isolated (CI; Sourasky Medical Center, Tel Aviv, Israel) strains, as well as isogenic mutant strains. Gram-negative bacteria included Acinetobacter baumannii ATCC 19606; Escherichia coli ATCC 25922, 35218, CFT073, CI 14384, 16327, and the isogenic pair Ag100 (wild-type) and its efflux deficient mutant Ag100a (ΔacrAB); Klebsiella pneumoniae CI 1287, 224; Pseudomonas aeruginosa ATCC 27853, CI 1278, 8634; Salmonella enterica serovar Typhimurium ATCC 14028 (wild-type) and its isogenic efflux deficient mutant ΔacrAB. Bacteria were grown in Luria–Bertani broth (LB; 5 g/l NaCl, 5 g/l yeast extract, 10 g/l tryptone; pH = 7.0) at 37 °C with shaking. Over-night cultures were diluted 10-folds into fresh growth-medium and incubated at 37 °C with shaking until reaching mid-logarithmic phase. Then, bacterial concentrations were adjusted using O.D.600 nm measurements, and bacteria were subjected to the experimental procedures listed herein.
(§2) MIC was determined according to the broth microdilution method: antimicrobials were subjected to serial twofold dilutions in LB medium, and incubated with 5 × 10^5 CFU/ml of bacteria (final volume of 200 µl) for 18–24 h at 37 °C. Then, O.D.620 nm was measured (BioTek Instruments Synergy HT; Winooski, VT, USA), and the MIC was defined as the lowest antimicrobial concentration for which no increase in O.D.620 nm was evident, compared to the untreated control.

HEK-293FT = assay: Cytotoxicity, Alamar blue; assay type: cell-based, human; settings: 24 h incubation, read-out: IC50 HEK-293FT (50% inhibition of cells respiration)
Method: (§3) Cell lines used in this study included murine RAW 264.7 macrophages and human embryonic kidney HEK-293FT cells (ATCC, Biological Industries, Beit Haemek, Israel). Cells were grown in Dulbecco’s modified eagle medium (DMEM) containing […] glucose, L-glutamine, sodium bicarbonate and sodium pyruvate, supplemented with 10% fetal bovine serum and pen-strep, at 37 °C and 5% CO2.
(§4) Lipopeptides cytotoxicity was determined using fluorescent measurements of reduced resazurin. 2 × 10^4 cells were first cultured in 96-well plates over-night (final volume of 100 µl) at 37 °C and 5% CO2. Then, the medium was removed and cells were incubated for an additional 24 h with serial twofold dilutions of the lipopeptides in growth medium. Then, 10 µl of Alamar blue were added and plates were incubated for 3 h, after which fluorescence (excitation: 530 nm; emission: 590 nm) of the reduced resazurin was recorded (BioTek Instruments Synergy HT; Winooski, VT, USA).

E. coli Ag100a (ΔacrAB) = settings: cited from earlier work
Excerpt: Table 2 Effect of RND pumps on growth-inhibitory activity. | column: MIC^a (µM) in LB / E. coli / Mutant

K. pneumoniae = assay: MIC, broth microdilution; assay type: cell-based, Klebsiella pneumoniae; settings: broth microdilution in LB, 18–24 h, 37 °C; n = 2 strains
Excerpt: as §1, §2

RAW 264.7 = assay: Cytotoxicity, Alamar blue; assay type: cell-based, murine; settings: 24 h incubation, read-out: IC50 RAW 264.7 (50% inhibition of cells respiration)
Method: as §3, §4

A. baumannii = assay: MIC, broth microdilution; assay type: cell-based, Acinetobacter baumannii; settings: broth microdilution in LB, 18–24 h, 37 °C; n = 1 strain
Excerpt: as §1, §2

[4] = test system: S. Typhimurium 14028ΔAcrAB; settings: cited from earlier work
Excerpt: Table 2 Effect of RND pumps on growth-inhibitory activity. | column: MIC^a (µM) in LB / S. Typhimurium / Mutant

E. coli = assay: MIC, broth microdilution; assay type: cell-based, Escherichia coli; settings: broth microdilution in LB, 18–24 h, 37 °C; n = 4 strains; published data in bold (not discernible)
Excerpt: as §1, §2

[5] = test system: Gram-negative ESKAPE pathogens; assay: MIC against 10 bacterial strains of the four Gram-negative ESKAPE species; assay type: cell-based
Excerpt: as §1
MIC was determined according to the broth microdilution method: antimicrobials were subjected to serial twofold dilutions in LB medium, and incubated with 5 × 10^5 CFU/ml of bacteria (final volume of 200 µl) for 18–24 h at 37 °C. […]

[6] = design: method as in PMID 20480482; settings: cited from earlier work
K. pneumoniae 1287 = assay: Combination with antibiotics, modified checkerboard titration; assay type: cell-based, Klebsiella pneumoniae
Method: as §2
(§5) Lipopeptides and antibiotics combinations were assessed using a modified version of the checkerboard titration method: Antibiotics MIC was determined in LB medium containing sub-inhibitory lipopeptide concentrations. The sensitization factor (SF)[46] was then calculated by SF = MICA/MICC, where “MICA” is the antibiotic MIC in absence of an adjuvant and “MICC “ is the antibiotic MIC in presence of an adjuvant, for a specified adjuvant concentration. Combinations were classified as synergistic when antibiotics MIC were decreased by > 4 folds. Alternatively, the fractional inhibitory concentration index (FICI) was calculated by FICI = MICC1/MICA1 + MICC2/MICA2, where “MICC1” and “MICC2” respectively specify the antibiotic and the adjuvant MIC values upon their combination, whereas “MICA1” and “MICA2” respectively specify the antibiotic and the adjuvant MIC values when tested individually. Combinations were classified as synergistic for FICI < 0.5.

A. baumannii 19606 = assay: Selective pressure, MIC evolution over 15 consecutive subcultures; settings: in absence of C10BBc12B
Method: The likelihood of antimicrobial-resistance development was assessed by recording MIC changes upon consecutive rounds of antimicrobials application, as in the MIC assay. Following each round, bacteria from wells corresponding to ½ of the resulting MIC were regrown in fresh media to mid-logarithmic phase and subjected to the same procedure for 15 consecutive days[66].

E. coli 25922 [7] = assay: Growth / time-kill kinetics; assay type: cell-based, Escherichia coli; settings: 10 µM C10BBc12B, 1 µg/ml erythromycin or 20 ng/ml rifampin alone
Method: Antimicrobials mode of action was determined according to the rate of bacterial killing. Varying concentrations of lipopeptides, antibiotics and combinations thereof were mixed in LB medium with 5 × 10^5 CFU/ml of bacteria (final volume of 1 ml) and incubated at 37 °C with shaking. At the designated time-points aliquots were serially tenfold diluted in saline, plated on LB agar, and incubated over-night at 37 °C for enumeration.

UPEC CFT073 = assay: Urinary-tract infection model; assay type: in vivo, mice; settings: 24 h post-infection; 2 mg/kg rifampin, 7.5 mg/kg q.i.d. C10BBc12B or both; n = 5
Method: (§6) The study is reported in accordance with ARRIVE guidelines.
(§7) Lipopeptides potential application in monotherapy and/or combination-therapies was explored with two infection models. In the peritonitis-sepsis model, mice (n = 10 per group) were first rendered neutropenic by two intraperitoneal (I.P.) injections of 0.3 ml containing 150 mg/kg and 100 mg/kg cyclophosphamide, administered 4 days and 1 day before the experiment, respectively. […] Mice survival was recorded for up to 7 days. In a variant assay, bacteria in PBS (1.4 × 10^6) were pre-treated with 10 µM lipopeptides for 15 min, similarly administered, and mice survival was recorded for up to 3 days. In the urinary-tract infection (UTI) model, mice (N = 5 mice per group) were anesthetized by a single I.P. injection (0.2 ml) containing a mixture of ketamine (100 mg/kg) and xylazine (5 mg/kg). Following application of an analgesic 2% lidocaine gel on their penises, mice were infected intra-urethraly using a 24-gauge catheter with 1.2 × 10^8 CFU/mouse (0.05 ml) and treated with the vehicle control (S.C., 1 h post-infection), 2 mg/kg rifampin (oral gavage, immediately before anesthesia), 7.5 mg/kg q.i.d. lipopeptides (S.C., starting 1 h post-infection), or both. Mice were sacrificed 24 h post-infection, their bladder and kidneys aseptically excised, suspended in 5 ml of sterile PBS, homogenized for 3 min using a bench-top homogenizer, serially tenfold diluted in saline, plated on LB agar, and incubated over-night at 37 °C for enumeration.

E. coli 25922 [8] = assay: Peritonitis-sepsis infection model in neutropenic mice; assay type: in vivo; settings: n = 10
Method: as §6, §7

E. coli 25922 [9] = assay type: cell-based, Escherichia coli; settings: E. coli
Method: as §2, §5

SMILES	MIC (µM) in LB, S. Typhimurium Wild-Type [1]	MIC (µM) in LB, E. coli Wild-Type [2]	LC50 Erythrocytes (50% hemolysis) (murine RBC)	IC50 (HEK-293FT)	MIC (µM) in LB, E. coli Mutant (E. coli Ag100a (ΔacrAB))	MIC K. pneumoniae (n=2) (K. pneumoniae)	IC50 (RAW 264.7)	MIC A. baumannii (n=1) (A. baumannii)	MIC (µM) in LB, S. Typhimurium Mutant [4]	MIC E. coli (n=4) (E. coli)	antibiotic MIC after 15 consecutive subcultures (A. baumannii 19606)	antibiotic MIC before subculturing (A. baumannii 19606)	effect on bacterial proliferation, individual agent (E. coli 25922 [7])	further results
CCCCCCCCCC(=O)N[C@@H](CCCCN)C(=O)N[C@@H](CCCCN)C(=O)NCCCCCCCCCCCC(=O)N[C@@H](CCCCN)C(N)=O [C10KKc12K] (Decanoyl-KK[12Ado]K-NH2)	> 50 µM	> 50 µM	> 50 µM	> 50 µM	6.2 µM (≈ 4.67 µg/mL)	≥ 50 µM	> 50 µM	> 50 µM	25 µM (≈ 18.8 µg/mL)	≥ 50 µM				CM depolarization (E. coli 25922 [3]): interact with the CM to the point of inducing its depolarization; MIC P. aeruginosa (n=3) (P. aeruginosa): > 50 µM
CCCCCCCCCC(=O)N[C@@H](CN)C(=O)N[C@@H](CN)C(=O)NCCCCCCCCCCCC(=O)N[C@@H](CN)C(N)=O [C10PPc12P] (Decanoyl-[Dap][Dap][12Ado][Dap]-NH2)			26 µM	> 50 µM		≥ 50 µM	> 50 µM	> 50 µM		12.5 to 25 µM				MIC [5]: occasionally presented somewhat lower MIC values; side-chain β-NH2 group pKa [6]: 6.3
CC[C@H]1OC(=O)[C@H](C)[C@@H](O[C@H]2C[C@@](C)(OC)[C@@H](O)[C@H](C)O2)[C@H](C)[C@@H](O[C@@H]2O[C@H](C)C[C@H](N(C)C)[C@H]2O)[C@](C)(O)C[C@@H](C)C(=O)[C@H](C)[C@@H](O)[C@]1(C)O [Erythromycin]	> 50 µM	> 50 µM			10.9 µM (≈ 8 µg/mL)				6.8 µM (≈ 4.99 µg/mL)		8,192 µg/ml	64 µg/mL	unable to significantly alter bacterial proliferation	antibiotic inhibitory concentration in absence of adjuvant (K. pneumoniae 1287): 512 µg/mL; antibiotic inhibitory concentration in presence of C10BBc12B (K. pneumoniae 1287): 0.250 µg/mL
CO[C@H]1/C=C/O[C@@]2(C)Oc3c(C)c(O)c4c(O)c(c(/C=N/N5CCN(C)CC5)c(O)c4c3C2=O)NC(=O)/C(C)=C\C=C\[C@H](C)[C@H](O)[C@@H](C)[C@@H](O)[C@@H](C)[C@H](OC(C)=O)[C@@H]1C [Rifampin, reference compound]	19.4 µM (≈ 16 µg/mL)	19.4 µM (≈ 16 µg/mL)			19.4 µM (≈ 16 µg/mL)				19.4 µM (≈ 16 µg/mL)		8 µg/mL	2 µg/mL	unable to significantly alter bacterial proliferation	bladder bacterial load (UPEC CFT073): no reduction in bacterial load; survival rate, monotherapy (E. coli 25922 [8]; 1.7 × 10^6 CFU/mouse, […] C10BBc12B S.C. 1 h post-infection or 20 mg/kg rifampin oral gavage): 50%; efficacy, monotherapy, higher inoculum (E. coli 25922 [8]; 1.9 × 10^6 CFU/mouse, […] C10BBc12B S.C. or 20 mg/kg rifampin oral): virtually no efficacy; antibiotic MIC in presence of C10BBc12B (K. pneumoniae 1287): below 1 ng/ml; antibiotic MIC in presence of C10BBc12B (E. coli 25922 [9]): below 1 ng/ml
